Experimental data as given in patent US7375243B2, “Method for preparation of amino acid chelate” (MD Bioalpha Co., Ltd., priority 2002, dated 2008).

Experiments:
[1] = test system: calcium-starved rats; test: Test of the degree of absorption of Ca-supplying agents in calcium-starved rats; details: for Length of fibula / Weight of fibula: Ca-starved rats, Ca-supplying agent orally for one week with Ca-free diet
Method: 3-week old Sprague-Dawley male rats (Daehan Biolink Co., Ltd., Korea) were employed for the present experiment after adjustment to an elementary diet These rats were divided into a normal group and an experimental group. The diet for the normal group (“normal diet”) was prepared based upon AIN-76 diet composition, whereas the diet for the experimental group (“Ca-flee diet” or “experimental diet”) was prepared by replacing a mineral mixture in the normal diet composition with a Ca deficient mineral mixture. […] These Ca-supplying agents were orally administered to each group along with the Ca-free diet for one week before the rats were sacrificed.
The concentration of Ca-supplying agent in the oral administration was ⅓ of the concentration of calcium in AIN-76 mineral mixture, which corresponds to 10 times the recommended amount for adult males. 3× distilled water was used for preparation of the experimental diet and was also was fed to rats for maintenance. The compositions of diets administered to the normal group and experimental groups, respectively, are described in TABLE 8 as below.
The abdomens of the rats were cut open under ether anesthesia, then blood was harvested from abdominal aorta, and major organs such as liver, kidney, spleen, etc. were […], followed by the extraction of fibula. The blood was centrifuged at 3000 rpm for 10 minutes to separate serum. Each organ and bone was trimmed and washed with normal saline and moisture on the surface thereof was removed to measure the weight and length thereof.
The content of calcium in serum and urine was measured by Calcium Reagent Arsenazo III kit (Sigma Corp., U.S.A). In order to measure the content of calcium in feces, the feces (sample) was put in a Pyrex beaker and the weight thereof was measured to 0.1 mg unit, then 5 ml of HNO3 and 2 ml of H2O2 were added and the beaker was left uncovered on a hot plate. The acid-digested sample was cooled and 2 ml of H2O2 was added thereto, followed by heating. Next, the acid was sufficiently volatilized to make the concentration of HNO3 to 1-5%, followed by the analysis with ICP-AES (inductively Coupled Plasma Atomic Emission Spectrometer). The condition for analysis is given below. • Model: Jobin Yvon 138 Ultrace • Source: Argon plasma (6000 K) • Spectral range: 160-800 nm • Resolution: 0.005 nm (UV) • Detection limit: 1×ppb˜100×ppb • Wavelength for analysis: 393.366 nm 3. Effect On Weight of Major Organs

[2] = test system: Fe-starved rats; test: Effect of Fe-supplying agents on the absorption of Fe in Fe-starved rats
Method: 3-week old Sprague-Dawley male rats (Daehan Biolink Co., Ltd., Korea) were employed for the present experiment after application of an elementary diet for one week. These rats were divided into a normal group and an experimental group. The diet for the normal group (“normal diet”) was prepared based upon AIN-76 diet composition, whereas the diet for the experimental group (“Fe-free diet” or “experimental diet”) was prepared by replacing a mineral mixture in the normal diet composition with a Fe-deficient mineral mixture. […] These Fe-supplying agents were orally administered to rats along with the experimental diet for one week before the rats were sacrificed.
The concentration of Fe-supplying agent for the oral administration was 10 times the recommended amount for adult males. 3× distilled water was used for preparation of the experimental diet and was fed to rats for maintenance. The compositions of diets administered to the normal group and experimental group, respectively, are described in TABLE 14 below.
Rats were adapted to a cage for one week before the start of the experiment, and their feces were collected for a final 3 days. On the final day, the abdomen was cut open under ether anesthesia, then blood was harvested from abdominal aorta, and major organs such as liver, kidney, spleen, etc. were extracted. […] Each organ was trimmed and washed with normal saline, then moisture on the surface thereof was removed to measure the weight and length.
CBC (Complete Blood Count: Red blood cell; RBC, white blood cell; WBC, Hematocrits; HCT, Hemoglobin; Hb) was measured from the anticoagulated blood, and IRON and TIBC Total Iron Binding Capacity) were measured from the blood serum. CBC was measured by an automatic analyzer (ADVIA 120, Bayer, U.S.A). As reagents, Isoton III (Beckman Coulter, U.S.A), Coulter clenz (Beckman Coulter), Lyse S III (Beckman Coulter), 4% sodium hypochloride-solution (Beckman Coulter) and 4C-plus (Beckman Coulter), Scatter Pak (Beckman Coulter) were used.
All data obtained in the present experiment were expressed with the mean standard error using the SAS program. T-test in each group was carried out at a range of P<0.05 by Duncan's multiple comparison test.

[3] = Stability of amino acid chelate on storage in aqueous solutions; format: physicochemical; details: distilled water and buffer at pH 3, 5, 7, 9, commercial beverages, cosmetics, ALGI; stored at 4, 25 and 50° C. for 3 months
Method: The following experiment was carried out to ascertain the stability of amino acid chelate compound, obtained in EXAMPLE 1, on its storage in an aqueous solution for a long time.
• 1) preparation of samples by adding the above amino acid chelate compound into distilled water adjusted to pH 3, 5, 7 and 9, respectively. • 2) preparation of samples by adding the above amino acid chelate compound into solutions adjusted to pH 3, 5, 7 and 9 using buffer, respectively. • 3) preparation of samples by adding the above amino acid chelate compound into selected commercially available beverages (MIEROFIBER® (Hyundai Pharm., Korea), BACCHUS® (Donga Pharm., Korea) and orange juice (HaeTae Beverage Corp., Korea)), respectively. • 4) preparation of samples by adding the above amino acid chelate compound into selected commercially available cosmetics (ISA KNOX® (LG Chemical Corp., Korea), MAMONDE® (AmorePacific Corp., Korea)) • 5) preparation of samples by adding the above amino acid chelate compound into ALGI® (GG Tech. Co. Ltd., Korea) as a plant growth-accelerating agent
The above samples were stored at 4, 25 and 50° C., respectively, and then tested for any precipitation or change in pH. […]

[4] = Fe-starved rats, oral for one week

Compound	Length of fibula [1]	Weight of fibula [1]	Concentration of calcium in serum ([1]; rat, in vivo, po)	Concentration of calcium in urine ([1]; rat, in vivo, po)	Kidney weight ([1]; rat, in vivo, po)	Spleen weight ([1]; rat, in vivo, po)	RBC [2, 4]	TIBC (total iron binding capacity) in serum [2, 4]	WBC [2, 4]	further results
O=C([O-])[O-].[Ca+2] [CaCO3]	30.03 ± 1.10 mm	0.332 ± 0.033 g	9.13 ± 0.21 mg/dL	0.22 ± 0.01 mg/dL	8.60 ± 0.40 mg/BW	3.00 ± 0.00 mg/BW	–	–	–	Concentration of serum-calcium in blood collected from eyeball ([1]; rat, in vivo, po): 8.52 ± 0.27 mg/dL
Heme iron	–	–	–	–	–	–	7.01 ± 0.16 ×10^6/mm^3	824.63 ± 11.60 µg/dL	6.12 ± 0.37 ×10^3/mm^3	HCT [2, 4]: 36.11 ± 0.89%; TS (transferrin saturation) [2, 4]: 17.07%; IRON in serum ([2]; rat, in vivo, po): 140.8. ± 25.55 μg/dl; Kidney weight ([2]; rat, in vivo, po): 7.20 ± 0.13 mg/BW; Spleen weight ([2]; rat, in vivo, po): 2.78 ± 0.15 mg/BW
Seaweed Calcium-Glutamic Acid Chelate [EXAMPLE 1]	–	–	–	–	–	–	–	–	–	precipitation or change in pH [3]: no precipitation or remarkable change in pH
calcium-aspartic acid chelate [Asp-Ca]	30.88 ± 1.87 mm	0.327 ± 0.031 g	–	–	–	–	–	–	–	–
iron-aspartic acid chelate [Fe-Asp]	–	–	–	–	–	–	7.32 ± 0.35 ×10^6/mm^3	735.44 ± 9.30 µg/dL	6.02 ± 0.46 ×10^3/mm^3	–
seaweed calcium [SW-Ca]	–	–	10.44 ± 0.07 mg/dL	0.32 ± 0.02 mg/dL	8.20 ± 0.20 mg/BW	3.00 ± 0.32 mg/BW	–	–	–	–
